Structures are written as SMILES.

For one assay, the target named is T1, P2X purinoceptor 7 (Homo sapiens, UniProt Q99572).
T1 sequence (Q99572 whole entry): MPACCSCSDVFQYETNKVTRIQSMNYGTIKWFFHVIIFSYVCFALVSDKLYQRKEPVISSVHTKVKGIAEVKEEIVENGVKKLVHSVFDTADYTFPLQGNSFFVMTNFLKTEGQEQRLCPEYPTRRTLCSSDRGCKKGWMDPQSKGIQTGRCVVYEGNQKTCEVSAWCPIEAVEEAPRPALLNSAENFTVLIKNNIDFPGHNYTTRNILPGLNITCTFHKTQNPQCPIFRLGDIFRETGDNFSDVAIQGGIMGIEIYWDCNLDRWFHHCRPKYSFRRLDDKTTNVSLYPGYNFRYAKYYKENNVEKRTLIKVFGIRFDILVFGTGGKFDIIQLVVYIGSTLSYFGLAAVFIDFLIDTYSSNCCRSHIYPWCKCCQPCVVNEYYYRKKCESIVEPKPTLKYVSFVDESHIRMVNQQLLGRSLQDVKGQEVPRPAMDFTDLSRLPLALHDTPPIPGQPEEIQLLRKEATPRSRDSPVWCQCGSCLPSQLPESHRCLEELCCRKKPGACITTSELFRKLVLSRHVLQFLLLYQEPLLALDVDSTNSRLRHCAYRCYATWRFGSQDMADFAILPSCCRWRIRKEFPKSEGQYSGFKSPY
The assay can be described thus: Antagonist activity at P2X7 receptor (unknown origin). The note with it: read-out: IC50.
Regarding `CN([C@@H](Cc1ccc(OS(=O)(=O)c2cccc3cnccc23)cc1)C(=O)N1CCN(Cc2ccccc2)CC1)S(=O)(=O)c1cccc2cnccc12`, the IC50 was found to be 0.0653 µM. As to `CN([C@@H](Cc1ccc(OS(=O)(=O)c2cccc3cnccc23)cc1)C(=O)N1CCN(c2ccccc2)CC1)S(=O)(=O)c1cccc2cnccc12`, the IC50 turned out to be 0.0944 µM.

Staying with this assay, now noted: read-out: pIC50 (converted).
Consider `Cc1nn(-c2ccccc2)c(C)c1NC(=O)NCc1ccc(F)cc1Cl`, for which the IC50 is over 1 µM.

For `O=C(CN1CC(=O)N(c2ccccc2)C1=O)NCc1ccc(F)cc1Cl`, the IC50 was over 1 µM. Same read-out and setting: the figure for `Cc1nn(-c2ccccc2)c(C)c1Cc1nnc(Cc2ccc(Cl)cc2Cl)o1` is over 1 µM; for `COc1ccc(Cl)c(NC(=O)CC23CC4CC(CC(C4)C2)C3)c1` it is 0.0631 µM. `Clc1cccc(-n2ncnc2NCc2cccnc2)c1Cl`: the IC50 was 0.00912 µM. With `CC(NC(=O)c1ccc(Cl)cc1)C12CC3CC(CC(C3)C1)C2` (stereo not drawn), the IC50 was 0.398 µM. Still for that read-out and setting: the figure for `CN(CC12CC3CC(CC(C3)C1)C2)C(=O)c1ccc(Cl)cc1` is 3.98 µM; for `CN(Cc1ccc(Cl)cc1)CC12CC3CC(CC(C3)C1)C2` it is 3.98 µM.

Consider `O=C(CC12CC3CC(CC(C3)C1)C2)Nc1ccc(Cl)cc1`, for which the IC50 was 0.501 µM. In the case of `Cc1cccc(-c2nnnn2Cc2cccnc2)c1C`, the IC50 is 0.251 µM. On the same count and under the same terms, the same measure for `COc1cccc(-c2nnnn2Cc2cccnc2)c1OC`: 3.98 µM; for `O=C(NCC12CC3CC(CC(C3)C1)C2)c1ccccc1Cl`: 0.00794 µM. Still for that read-out and setting: the same measure for `O=C(NCC12CC3CC(CC(C3)C1)C2)c1ccc(Cl)cc1Cl`: 0.398 µM; for `O=C(NCC12CC3CC(C1)CC(CNC(=O)c1ccc(Cl)cc1Cl)(C3)C2)c1ccc(Cl)cc1Cl`: 0.126 µM.

With `COc1cccc(NC(=O)CC23CC4CC(CC(C4)C2)C3)c1C`, the IC50 was 0.00501 µM. Still for that read-out and setting: the figure for `COc1ccc(C)c(NC(=O)CC23CC4CC(CC(C4)C2)C3)c1` is 0.01 µM.

The record behind these values is ChEMBL document CHEMBL3108702, “Purinergic receptor P2X₇: a novel target for anti-inflammatory therapy” (Bioorg Med Chem, 2014).
